How the values were obtained:
Phytophthora infestans = conditions: in vivo
Alternaria solani = conditions: in vivo
Venturia inaequalis = assay: Venturia test (apples)/preventive; format: in vivo; conditions: preventive spray, evaluated 10 days after inoculation
Method: Solvent: 24.5 parts by weight of acetone • 24.5 parts by weight of dimethylacetamide
Emulsifier: 1 part by weight of alkylaryl polyglycol ether
To produce a suitable preparation of active compound, 1 part by weight of active compound is mixed with the stated amounts of solvent and emulsifier, and the concentrate is diluted with water to the desired concentration. To test for preventive activity, young plants are sprayed with the preparation of active compound at the stated rate of application. After the spray coating has dried on, the plants are inoculated with an aqueous conidia suspension of the causal agent of apple scab (Venturia inaequalis) and then remain for 1 day in an incubation cabinet at approximately 20° C. and a relative atmospheric humidity of 100%. The plants are then placed in a greenhouse at approximately 21° C. and a relative atmospheric humidity of approximately 90%. The test is evaluated 10 days after the inoculation. 0% means an efficacy which corresponds to that of the untreated control, while an efficacy of 100% means that no disease is observed.

Row | SMILES | Efficacy in % found (Phytophthora infestans) [%] | Efficacy in % found (Alternaria solani) [%] | Efficacy in % found (Venturia inaequalis; 250 ppm a.i.) [%] | Efficacy in % found (Venturia inaequalis; 25 ppm a.i.) [%]
1 | O=S(=O)([O-])[O-].[Zn+2] [(3-7), zinc sulphate] | 35 | 23 | 19 | –
2 | O=S(=O)([O-])[O-].[Mg+2] [(1-2), magnesium sulphate] | – | 0 | – | –
3 | Cn1c(=O)c2sc3c(=O)n(C)c(=O)c3sc2c1=O [(I-1), 2,6-dimethyl-1H,5H-[1,4]dithiino[2,3-c:5,6-c′]dipyrrole-1,3,5,7(2H,6H)-tetrone] | 9 | – | – | 32
4 | O=S(=O)([O-])[O-].[Fe+2] [(3-3), iron sulphate] | – | 35 | 43 | –
5 | O=S(=O)([O-])[O-].[Mn+2] [(3-2), manganese sulphate] | 0 | 0 | – | –

Source: patent publication US20110280958A1 (priority 2010, published 2011)
